# Legend:
# E. coli (TEM) = experiment: In vitro activity (MIC), agar dilution method; assay type: cell-based; details: Escherichia coli
# Protocol: (§1) Cephalosporins 9a-o were assayed against a broad array of Gram-positive and Gram-negative bacteria in Mueller-Hinton agar by the 2-fold serial dilution method, (Kirst, H. A.; J. Antibiot. 1982, 35, 1675).
# (§2) Test compounds were diluted to an appropriate range of concentrations in 0.1M phosphate buffer (pH 7), incorporated into Mueller-Hinton agar (difco) supplemented with 1% Bacto-Supplement C (Difco) at 50° C. and allowed to solidify in petri dishes. Fresh overnight cultures of test bacteria were diluted to approximately 1×10^4 cells/mL aand applied in […] to the surface of the agar plates. The inoculated plates were incubated overnight at 35° C. in ambient air. MIC endpoints were recorded as the lowest antibiotic concentrations that inhibited the development of visible bacterial growth on the plates.
# Staph. aureus (S13E) = experiment: In vitro activity (MIC), agar dilution method; assay type: cell-based; details: Staphylococcus aureus
# Protocol: as §1, §2
# H. influenzae (76) = experiment: In vitro activity (MIC), agar dilution method; assay type: cell-based; details: Haemophilus influenzae
# Protocol: as §1, §2
# Strept. pyogenes (C203) = experiment: In vitro activity (MIC), agar dilution method; assay type: cell-based; details: Streptococcus pyogenes
# Protocol: as §1, §2
# H. influenzae (C.L.) = experiment: In vitro activity (MIC), agar dilution method; assay type: cell-based; details: Haemophilus influenzae
# Protocol: as §1, §2
# K. pneumonia (X26) = experiment: In vitro activity (MIC), agar dilution method; assay type: cell-based; details: Klebsiella pneumoniae
# Protocol: as §1, §2
# K. pneumonia (X68) = experiment: In vitro activity (MIC), agar dilution method; assay type: cell-based; details: Klebsiella pneumoniae
# Protocol: as §1, §2
# E. coli (N10) = experiment: In vitro activity (MIC), agar dilution method; assay type: cell-based; details: Escherichia coli
# Protocol: as §1, §2
# Enter. faecium (X66) = experiment: In vitro activity (MIC), agar dilution method; assay type: cell-based; details: Enterococcus faecium
# Protocol: as §1, §2
# Enter. faecalis (2041) = experiment: In vitro activity (MIC), agar dilution method; assay type: cell-based; details: Enterococcus faecalis
# Protocol: as §1, §2
# E. coli (EC14) = experiment: In vitro activity (MIC), agar dilution method; assay type: cell-based; details: Escherichia coli
# Protocol: as §1, §2
# Staph. aureus (V41) = experiment: In vitro activity (MIC), agar dilution method; assay type: cell-based; details: Staphylococcus aureus
# Protocol: as §1, §2
# Staph. aureus (X400) = experiment: In vitro activity (MIC), agar dilution method; assay type: cell-based; details: Staphylococcus aureus
# Protocol: as §1, §2
# Staph. aureus (X1.1) = experiment: In vitro activity (MIC), agar dilution method; assay type: cell-based; details: Staphylococcus aureus
# Protocol: as §1, §2
# K. pneumonia (KAE) = experiment: In vitro activity (MIC), agar dilution method; assay type: cell-based; details: Klebsiella pneumoniae
# Protocol: as §1, §2
# Staph. epiderm. (222) = experiment: In vitro activity (MIC), agar dilution method; assay type: cell-based; details: Staphylococcus epidermidis
# Protocol: as §1, §2
# Gram-positive bacteria = details: in words; background statement; cited from earlier work
# other Gram(-) bacteria = experiment: In vitro activity (MIC), agar dilution method; assay type: cell-based
structure (smiles),measurement,setting,value
"CN[C@H](CC(C)C)C(=O)N[C@H]1C(=O)N[C@@H](CC(N)=O)C(=O)N[C@H]2C(=O)N[C@H]3C(=O)N[C@H](C(=O)N[C@H](C(=O)O)c4cc(O)cc(O)c4-c4cc3ccc4O)[C@H](O)c3ccc(c(Cl)c3)Oc3cc2cc(c3O[C@@H]2O[C@H](CO)[C@@H](O)[C@H](O)[C@H]2O[C@H]2C[C@](C)(N)[C@H](O)[C@H](C)O2)Oc2ccc(cc2Cl)[C@H]1O [Vanc, Vancomycin, reference compound]",MIC,E. coli (TEM),128 µg/mL
same,MIC,Staph. aureus (S13E),0.5 µg/mL
same,MIC,H. influenzae (76),128 µg/mL
same,MIC,Strept. pyogenes (C203),0.5 µg/mL
same,MIC,H. influenzae (C.L.),64 µg/mL
same,MIC,K. pneumonia (X26),128 µg/mL
same,MIC,K. pneumonia (X68),128 µg/mL
same,MIC,E. coli (N10),128 µg/mL
same,MIC,Enter. faecium (X66),0.5 µg/mL
same,MIC,Enter. faecalis (2041),2 µg/mL
same,MIC,E. coli (EC14),128 µg/mL
same,MIC,Staph. aureus (V41),0.5 µg/mL
same,MIC,Staph. aureus (X400),0.5 µg/mL
same,MIC,Staph. aureus (X1.1),0.5 µg/mL
same,MIC,K. pneumonia (KAE),128 µg/mL
same,MIC,Staph. epiderm. (222),0.5 µg/mL
same,activity against Gram-positive bacteria including methicillin-resistant staphylococci,Gram-positive bacteria,potent activity only against the Gram-positive bacteria including methicillin-resistant staphylococci
same,MIC,other Gram(-) bacteria,128 µg/mL

# Reference: patent US5525599A, “7-substituted-amino-3-substituted-3-cephem-4-carboxylic acids” (Eli Lilly and Company, priority 1993, dated 1996)
